Test results as given in patent US6362163B1, “Parathyroid hormone-related peptide analogs” (The General Hospital Corporation, priority 1996, dated 2002).
Where no end group is shown, it is not given here.

T1: PTH/PTHrP receptor (Homo sapiens, UniProt Q03431)
T1 construct: expressed in transfected cells; host or cells: COS-7 cells, transient transfection, vector pcDNA-1
T1 sequence (Q03431 27-593): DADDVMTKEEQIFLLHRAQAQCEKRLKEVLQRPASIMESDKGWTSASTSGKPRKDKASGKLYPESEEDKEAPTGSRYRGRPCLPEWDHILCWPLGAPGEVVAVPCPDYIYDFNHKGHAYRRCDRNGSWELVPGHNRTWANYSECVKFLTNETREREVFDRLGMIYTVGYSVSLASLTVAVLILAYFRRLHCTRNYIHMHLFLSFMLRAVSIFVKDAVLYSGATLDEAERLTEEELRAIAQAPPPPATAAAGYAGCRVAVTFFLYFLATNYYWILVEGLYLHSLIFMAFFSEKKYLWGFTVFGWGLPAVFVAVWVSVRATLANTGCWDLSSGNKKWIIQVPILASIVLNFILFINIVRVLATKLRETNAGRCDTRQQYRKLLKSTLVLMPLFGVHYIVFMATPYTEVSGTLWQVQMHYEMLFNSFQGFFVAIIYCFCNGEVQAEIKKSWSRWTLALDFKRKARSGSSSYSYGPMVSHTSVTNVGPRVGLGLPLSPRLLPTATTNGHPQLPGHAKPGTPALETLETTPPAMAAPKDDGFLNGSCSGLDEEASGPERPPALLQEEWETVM


How the values were obtained:
PTH/PTHrP receptor = target: T1, PTH/PTHrP receptor; assay: Ligand-induced intracellular cAMP accumulation, COS-7 cells expressing human PTH/PTHrP receptor; assay type: cell-based; details: highest level of cAMP attained; basal 4.6 ± 0.2 not subtracted; 1h at room temperature
Description: (§1) The cDNAs encoding the human PTH/PTHrP receptor (Schipani, E. et al., Endocrinology 132:2157-2165 (1993)) and the human PTH-2 receptor (Usdin, T. et al., J. Biol. Chem. 270:15455-15458 (1995)) were carried on the expression vectors pcDNA-1 and pcDNAI/Amp (InVitrogen, San Diego, Calif.), respectively. COS-7 cells were cultured and transfected as described previously (Lee, C. et al., Mol. Endocrinol. 9:1269-1278 (1995)). Cells were transfected in 24-well plates using plasmid DNA (200 ng/well) purified by cesium chloride/ethidium bromide gradient centrifugation. Ligand binding and cAMP accumulation assays were performed three days after transfection, by which time the cell density reached 500,000±100,000 cells/well.
(§2) Transfected COS-7 cells were rinsed with […] of binding buffer. 200 μl of IBMX buffer (DMEM containing 2 mM IBMX, 1 mg/ml bovine serum albumin, 35 mM Hepes-NaOH, pH 7.4) and […] of binding buffer or binding buffer containing various amounts of a PTH or PTHrP analog were then added. The plates were incubated for 60 minutes at room temperature. The buffer was then withdrawn and the cells lysed by placing the plates on powdered dry ice and adding 0.5 ml of 50 mM HCl. The acid lysate was diluted 1/30 in dH2O, and an aliquot (5-50 μl) analyzed for cAMP content by radioimmunoassay. […] The cells were then incubated for 30 minutes at room temperature, and the resulting intracellular cAMP was measured by RIA. Data were analyzed using the AssayZap software (Elsevier Science Publishers BV, Cambridge, United Kingdom).

PTH-2 receptor = target: T2, PTH-2 receptor (Homo sapiens, UniProt P49190); assay: Ligand-induced intracellular cAMP accumulation, COS-7 cells expressing human PTH-2 receptor; assay type: cell-based; details: for cAMP agonist activity in words, PTH-2 receptor: COS-7 cells; for cAMP accumulation Maximum, PTH-2 receptor: highest level of cAMP attained, basal 5.4 ± 0.3 not subtracted, 1h at room temperature
T2 construct: expressed in transfected cells; host or cells: COS-7 cells, transient transfection, vector pcDNAI/Amp
Description: as §1, §2

human PTH-2 receptor = human PTH-2 receptor (human, UniProt P49190 25-550); assay: cell-based or functional assay
Sequence of human PTH-2 receptor (P49190 25-550): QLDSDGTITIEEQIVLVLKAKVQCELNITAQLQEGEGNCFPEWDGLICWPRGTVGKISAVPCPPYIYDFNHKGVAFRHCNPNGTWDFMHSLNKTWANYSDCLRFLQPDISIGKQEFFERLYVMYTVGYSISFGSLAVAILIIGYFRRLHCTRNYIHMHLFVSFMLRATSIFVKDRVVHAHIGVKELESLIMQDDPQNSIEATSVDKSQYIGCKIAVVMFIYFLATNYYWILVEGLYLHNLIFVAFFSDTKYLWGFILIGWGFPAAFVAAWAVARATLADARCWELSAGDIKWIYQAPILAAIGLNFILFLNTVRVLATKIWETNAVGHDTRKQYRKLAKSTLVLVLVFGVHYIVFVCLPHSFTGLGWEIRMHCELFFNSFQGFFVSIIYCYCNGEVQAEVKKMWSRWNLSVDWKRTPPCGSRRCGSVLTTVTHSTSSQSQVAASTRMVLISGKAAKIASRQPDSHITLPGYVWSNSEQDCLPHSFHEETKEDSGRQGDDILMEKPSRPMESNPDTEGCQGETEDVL

T2 sequence (P49190 25-550): as above

Row | cAMP accumulation Maximum, PTH/PTHrP receptor (PTH/PTHrP receptor) [pmoles/well] | cAMP agonist activity in words, PTH-2 receptor (PTH-2 receptor) | cAMP accumulation Maximum, PTH-2 receptor (PTH-2 receptor) [pmoles/well] | cAMP EC50, fold higher than that of PTH-(1-34) (PTH-2 receptor; PTH-2 receptor) [fold] | cAMP accumulation EC50 (human PTH-2 receptor) [nM] | cAMP accumulation Maximum (human PTH-2 receptor) [pmoles/well] | Molecule
1 | 109 ± 10 | as potent and efficacious as PTH-(1-34) | 65 ± 7 |  |  |  | [Ile^5, Trp^23]PTHrP-(1-36) [[15, W23, Y36]hPTHrP-(1-36)NH2]
2 | 123 ± 28 |  |  |  |  |  | hPTH-(1-14)/[Y34]hPTHrP-(15-34)NH2 [Hybrid-2]
3 | 95 ± 9 |  | 11 ± 1 |  |  |  | hPTHrP-(1-23)/[Y34]hPTH-(24-34)NH2 [Hybrid 3]
4 |  | full agonist | 80 ± 5 | 12 |  |  | [Ile^5]PTHrP-(1-36) [[15, Y36]hPTHrP-(1-36)NH2]
5 | 110 ± 19 |  | 7.1 ± 0.9 |  |  |  | [H5, F23, Y34]hPTH-(1-34)NH2
6 | 107 ± 17 |  | 6.7 ± 0.6 |  |  |  | hPTHrP-(1-21)/[Y34]hPTH-(22-34)NH2 [Hybrid-4]
7 | 133 ± 14 |  | 6.2 ± 0.4 |  |  |  | hpTHrP-(1-18)/[Y34]hpTH-(19-34)NH2 [Hybrid-5]
8 | 140 ± 17 | weak activity | 5.3 ± 0.6 |  |  |  | hpTHrP-(1-14)/[Y34]hPTH-(15-34)NH2 [Hybrid-1]
9 |  |  |  |  | 7 | 80 | AVSEIQLLHDKGKSIQDLRRRFFLHHLIAEIHTAEY-NH2 [[I5, Y36]hPTHrP-(1-36)NH2]
10 |  |  |  |  | 0.6 | 81 | SVSEIQLMHNLGKHLNSMERVEWLRKKLQDVHNY-NH2 [[Tyr^34]hPTH-(1-34)NH2]
11 |  |  |  |  | > 1000 | 7.1 | SVSEHQLMHNLGKHLNSMERVEFLRKKLQDVHNY-NH2 [[H5, F23, Y34]hPTH-(1-34)NH2]
12 |  |  |  |  | > 1000 | 10 | SVSEHQLMHNLGKHLNSMERVEWLRKKLQDVHNY-NH2 [[H5, Y34]hPTH-(1-34)NH2]
13 |  |  |  |  | > 1000 | 5.3 | AVSEHQLLHDKGKSLNSMERVEWLRKKLQDVHNY-NH2 [Hybrid-1 hPTHrP-(1-14)/[Y34]hPTH-(15-34)NH2]
14 |  |  |  |  | > 1000 | 6.7 | AVSEHQLLHDKGKSIQDLRRREWLRKKLQDVHNY-NH2 [Hybrid-4 hPTHrP-(1-21)/[Y34]hPTH-(22-34)NH2]
